“Also recorded” adds a separate entry of the source.
What was measured:
epidermal ODC = assay: TPA-induced epidermal ODC enzyme activity (14CO2 release); type: in vivo, mouse; conditions: for inhibition of TPA-caused induction of epidermal ODC activity: p<0.005
Protocol: FIG. 3. Inhibitory effect of Lupeol on TPA-induced epidermal ODC activity: ODC enzyme activity was determined using 0.4 ml epidermal supernatant by measuring the release of ^14CO2 from the D, L-[^14C]ornithine. Data is represented as mean±SE of four individual values (* represents p<0.005). The epidermis from two animals was pooled for each determination.
The animals were shaved on the dorsal side of the skin, divided into four groups and treated topically on the shaved area with either 0.4 ml vehicle (acetone), or TPA (3.2 nmol/0.4 ml acetone/animal, v/v), or Lupeol (1 or 2 mg/0.2 ml acetone/animal, w/v) followed 30 min later with TPA (3.2 nmol/0.2 ml acetone/animal). Animals were sacrificed at different times point i.e. 6, 12, 24 and 48 h post TPA treatment. The epidermis was separated from the whole skin and homogenized in 0.1 M Tris-HCl buffer (pH 7.2) using a Polytron tissue homogenizer (Brinkmann Instruments, Westbury, N.Y., USA) at 100,000×g supernatant, and microsomal fractions were prepared as described earlier (Katiyar and Mukhtar, 1997). The sample of 6 h treatment group was used to assess the ODC activity as this time point has previously been shown for optimal induction of the enzyme (Katiyar er al., 1996).
ODC enzyme activity was determined using 0.4 ml epidermal supernatant by measuring the release of ^14CO2 from the D, L-[^14C] ornithine as reported earlier. (Gupta et al., 1999). The epidermis from the skin was homogenized at 4° C. in a glass-to-glass homogenizer in 10 volumes of ODC buffer [50 mM Tris-HCl buffer (pH 7.5) containing 0.1 mM EDTA, 0.1 mM dithiothreitol, 0.1 mM pyridoxal-5-phosphate, 1 mM 2-mercaptoethanol and 0.1% Tween-80]. The homogenate was centrifuged at 100,000×g at 4° C. and the supernatant was used for enzyme determination. […] The radioactivity was measured in a Beckman LS 6000 SC liquid scintillation counter. Enzyme activity was expressed as pmol CO2 released/h/mg protein.

LNCaP cells = assay: Apoptosis in LNCaP cells by flow cytometry; type: cell-based, human; conditions: Lupeol 5-30 μM
Protocol: FIG. 11 depicts quantitative representation of Lupeol induced apoptosis in LNCaP cells as assessed by flow cytometry. Cells were treated with Lupeol (5-30 μM). Cells showing fluorescence above that of control population, as indicated by the line in each histogram, are considered as apoptotic cells. The images shown here are representative of independent experiments with similar results. The values shown inside each graph indicates percent apoptotic cells.

[1] = system: PARP, Bax, Bcl-2 in AsPC-1 cells; assay: PARP cleavage and Bax, Bcl-2 expression in AsPC-1 cells; type: cell-based
From the text: FIG. 22 depicts effect of Lupeol treatment on PARP cleavage and on protein expression of Bax, Bcl-2 in AsPC-1 cells.

[2] = system: androgen-sensitive prostatic cancer cells (LNCaP); assay: Viability of LNCaP cells, MTT assay; type: cell-based, human; conditions: for cell death of LNCaP cells: 48 hours
Protocol: FIG. 10 depicts effect of Lupeol on viability of androgen-sensitive prostatic cancer cells (LNCaP). Cells were treated with specified concentrations of Lupeol for 48 h, and cell viability was determined by MTT assay. The values are represented as the percent viable cells where vehicle-treated cells were regarded as 100% viable. Data represents mean value of percent viable cells±S.E of three independent experiments.

[3] = system: I-κBα protein and p65-subunit of NFκB in AsPC-1 cells; assay: Phosphorylation of IκBα and NFκB p65 in AsPC-1 cells; type: cell-based
From the text: FIG. 24 depicts effect of Lupeol treatment on the phosphorylation of I-κBα protein and p65-subunit of NFκB transcriptional factor in AsPC-1 cells.

SMILES: C=C(C)[C@@H]1CC[C@]2(C)CC[C@]3(C)[C@H](CC[C@@H]4[C@@]5(C)CC[C@H](O)C(C)(C)[C@@H]5CC[C@]43C)[C@@H]12 [Lupeol, Lup-20(29)-en-3β-ol]
- inhibition of TPA-caused induction of epidermal ODC activity (epidermal ODC; Lupeol 1 mg/animal topical 30 min prior to TPA): 50%
- inhibition of TPA-caused induction of epidermal ODC activity (epidermal ODC; Lupeol 2 mg/animal topical 30 min prior to TPA): 75%
- basal epidermal ODC activity (epidermal ODC; Lupeol alone (2 mg/animal)): without any effect
- induction of apoptosis in LNCaP cells (LNCaP cells): due to apoptosis; also recorded: inducing apoptosis
- expression level of anti-apoptotic protein Bcl-2 [1]: no change was observed
- Bax protein expression ([1]; 48 hours): increased Bax protein expression
- cleavage of PARP ([1]; 48 hours): induced cleavage of PARP
- cell death of LNCaP cells ([2]; 40-60 μM Lupeol): 75-90%
- cell viability of LNCaP cells ([2]; Lupeol 5-30 μM, 48 and 72 h, time and dose dependent): significant inhibition of cell viability
- cell death of LNCaP cells ([2]; Lupeol up to 30 μM): 70%
- phosphorylation of IkBα [3]: significant reduction
- phosphorylation of NFkB [3]: reduction in the phosphorylation of NFkB

— patent US8618082B2, “Lupeol anti-tumor agent and uses thereof” (Wisconsin Alumni Research Foundation, priority 2004, dated 2013)
